Experimental data published in patent publication US5180665A, “Method for quantitatively assaying the presence of diarrhetic shellfish poisoning toxins in marine samples” (priority 1990, dated 1993).
Read-outs that look alike come from different tables or passages of the source. Numbered stars: 1 amine (or outer) side, 2 acyl side, 3 side chain; on linkers, the order of the positions; unused ones are H or OH. Bridge positions count the residues as written; N and C are the ends. Square brackets hold non-standard residues; d marks the D form. Peptide text beside a SMILES is read from it. Adda = CO[C@@H](Cc1ccccc1)[C@@H](C)/C=C(C)/C=C/[C@H](N[*:1])[C@H](C)C(=O)[*:2]; dAsp(3S-Me) = C[C@H](C(=O)[*:3])[C@@H](N[*:1])C(=O)[*:2]; d(γGlu) = O=C(O)[C@@H](CCC(=O)[*:2])N[*:1]; NMeDha = C=C(NC)C(=O)O

What was measured:
[1] = target: T1, protein phosphatase-2A (PP2A) catalytic subunit (Oryctolagus cuniculus, UniProt P67777); test: Standard phosphorylase a phosphatase assay, inhibition of PP2A catalytic subunit; type: biochemical, rabbit; settings: for inhibition of PP2A: result in words
T1 construct: Homogeneous PP-1 and -2A catalytic subunits were purified from rabbit skeletal muscle; from tissue; host or cells: rabbit skeletal muscle
T1 sequence (P67777 whole entry): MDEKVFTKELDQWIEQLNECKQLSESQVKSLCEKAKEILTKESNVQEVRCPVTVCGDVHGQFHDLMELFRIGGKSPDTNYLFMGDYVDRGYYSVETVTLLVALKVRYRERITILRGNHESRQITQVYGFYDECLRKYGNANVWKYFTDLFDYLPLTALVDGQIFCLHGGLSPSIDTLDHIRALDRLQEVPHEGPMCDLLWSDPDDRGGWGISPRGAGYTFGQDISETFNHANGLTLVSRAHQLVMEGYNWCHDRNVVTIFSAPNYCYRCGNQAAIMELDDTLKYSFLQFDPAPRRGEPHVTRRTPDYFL

[2] = target: protein phosphatase-1 (PP1) catalytic subunit; test: Standard phosphorylase a phosphatase assay, inhibition of PP1 catalytic subunit; type: biochemical, rabbit; settings: for inhibition of PP1: result in words
PP1/PP2A = test: LC-linked protein phosphatase bioassay, cross-reactivity; type: biochemical, rabbit; settings: result in words
[3] = system: protein phosphatase-1 (PP1); settings: literature, result in words; cited from earlier work
mouse skin = settings: cited from earlier work
[4] = system: protein phosphatase-2A (PP2A); settings: literature, result in words; cited from earlier work

## C=C1C(=O)N[C@H](C)C(=O)N[C@@H](CC(C)C)C(=O)N[C@@H](C(=O)O)[C@H](C)C(=O)N[C@@H](CCCNC(=N)N)C(=O)N[C@@H](/C=C/C(C)=C/[C@H](C)[C@H](Cc2ccccc2)OC)[C@H](C)C(=O)N[C@@H](C(=O)O)CCC(=O)N1C [Microcystin-LR] (R[Adda][d(γGlu)][NMeDha][dA]L[dAsp(3S-Me)]-OH; lactam N-7)
[1]; pH 7, read-out: IC50 for PP2A inhibition
  IC50: 0.1 nM
[2]; pH 7
  IC50: 0.1 nM

## C/C(=C/C=C/[C@@H](C)C(=O)O)[C@H]1CN[C@H](C(=O)O)[C@H]1CC(=O)O [domoic acid]
PP1/PP2A
  cross-reactivity in the LC-linked protein phosphatase bioassay: does not cross-react

## CO[C@@H]1[C@@H](OC)[C@H](C)[C@@](O)(CC(=O)O)O[C@H]1[C@H](C)[C@H]1O[C@@]2(CC[C@@](C)([C@H]3CC[C@@](C)([C@@H]4O[C@@H]([C@H]5O[C@](C)(O)[C@H](C)C[C@@H]5C)C[C@@H]4O[C@@H]4C[C@H](OC)[C@@H](OC)[C@H](C)O4)O3)O2)C[C@H](O)[C@H]1C [maduramycin]
[1]
  inhibition of PP2A: not inhibited
[2]
  inhibition of PP1: not inhibited

## CC[C@@]1([C@@H]2O[C@@H]([C@H]3O[C@@](O)(CO)[C@H](C)C[C@@H]3C)C[C@@H]2C)CC[C@H]([C@]2(C)CC[C@]3(C[C@H](O)[C@@H](C)[C@@H]([C@@H](C)[C@@H](OC)[C@H](C)C(=O)O)O3)O2)O1 [monensin]
[1]
  inhibition of PP2A: not inhibited
[2]
  inhibition of PP1: not inhibited

## CO[C@@H]1C[C@@H](C[C@H]2CC[C@H](C)[C@H]([C@@H](C)C(=O)O)O2)O[C@]2(O[C@](C)([C@H]3CC[C@@](C)([C@@H]4O[C@@H]([C@H]5O[C@@](O)(CO)[C@H](C)C[C@@H]5C)C[C@@H]4C)O3)C[C@H]2C)[C@@H]1C [nigericin]
[1]
  inhibition of PP2A: not inhibited
[2]
  inhibition of PP1: not inhibited

## C=C1[C@@H](O)[C@@H]2O[C@]3(CC[C@H](/C=C/[C@@H](C)[C@@H]4CC(C)=C[C@@]5(O[C@H](C[C@@](C)(O)C(=O)O)CC[C@H]5O)O4)O3)CC[C@H]2O[C@@H]1[C@@H](O)C[C@H](C)[C@H]1O[C@@]2(CCCCO2)CC[C@H]1C [okadaic acid]
[1]; PP2A diluted to 0.03 mU/ml in the standard assay, read-out: IC50 for okadaic acid with diluted PP2A
  IC50: 0.04 nM
[1]; PP2A relative to PP1, standard assay
  fold stronger inhibition of PP2A than PP1: 90(+10) fold
[3]
  inhibitor of protein phosphatase-1: potent and specific inhibitor
Mouse skin; result in words
  tumour promotion: powerful tumour promoters
Mouse skin; two-stage carcinogenesis, mouse skin, versus phorbol esters
  tumour promoting potency compared with phorbol esters: comparable potency
[2]; standard phosphorylase a phosphatase assay, 1 mU/ml PP1, pH 7.0, 30° C.
  IC50: 19 nM
[4]
  inhibitor of protein phosphatase-2A: potent and specific inhibitor

## CC[C@@H](C(=O)[C@@H](C)[C@@H](O)[C@H](C)[C@@H]1O[C@@H]([C@@H](CC)C(=O)O)CC[C@@H]1C)[C@H]1O[C@]2(C=C[C@@H](O)[C@]3(CC[C@@](C)([C@H]4CC[C@](O)(CC)[C@H](C)O4)O3)O2)[C@H](C)C[C@@H]1C [salinomycin]
[1]
  inhibition of PP2A: not inhibited
[2]
  inhibition of PP1: not inhibited

## dinophysistoxin-1
[1]; rabbit
  fold stronger inhibition of PP2A than PP1: 90(+10) fold
Mouse skin; mouse, in vivo
  tumour promoting potency compared with phorbol esters: comparable potency
  tumour promotion: powerful tumour promoters
